Where a name gives a salt, the structure may show the parent alone. Read-outs that look alike come from different tables or passages of the source.
Columns and labels:
[1] = target: hM3 muscarinic receptor (Homo sapiens (Human), UniProt P20309); test: Radioligand binding assay for muscarinic receptors ([3H]-NMS displacement, CHO cell membranes)
Method: The cells were grown in a 5% CO2, 37° C. incubator and lifted with 2 mM EDTA in dPBS. Cells were collected by 5 minute centrifugation at 650×g, and cell pellets were either stored frozen at −80° C. or membranes were prepared immediately for use. For membrane preparation, cell pellets were resuspended in lysis buffer and homogenized with a Polytron PT-2100 tissue disrupter (Kinematica AG; 20 seconds×2 bursts). Crude membranes were centrifuged at 40,000×g for 15 minutes at 4° C. The membrane pellet was then resuspended with re-suspension buffer and homogenized again with the Polytron tissue disrupter. The protein concentration of the membrane suspension was determined by the method described in Lowry et al., 1951, […], 193, 265. All membranes were stored frozen in aliquots at −80° C. or used immediately. […] The membranes were briefly homogenized using a Polytron tissue disruptor (10 seconds) prior to assay plate addition. […] The test compounds were initially dissolved to a concentration of 400 μM in dilution buffer and then serially diluted 5× with dilution buffer to final concentrations ranging from 10 μM to […]. The order of addition and volumes added to the assay plates were as follows: 25 μL radioligand, 25 μL diluted test compound, and 50 μL membranes. Assay plates were incubated for 6 hours at 37° C. […] Filter plates were rinsed three times with wash buffer (10 mM HEPES) to remove unbound radioactivity. The plates were then air-dried and 50 μL Microscint-20 liquid scintillation fluid (PerkinElmer, Inc.) were added to each well. The plates were then counted in a PerkinElmer Topcount liquid scintillation counter (PerkinElmer, Inc.). Binding data were analyzed by nonlinear regression analysis with the GraphPad Prism Software package (GraphPad Software, Inc., San Diego, Calif.) using the one-site competition model. […] These summary statistics were then converted back to K; values for data reporting.

[2] = target: hβ2 adrenergic receptor (Homo sapiens (Human), UniProt P07550); test: Assay for determining adrenergic receptor agonist potency (cAMP Flashplate, HEK-293 cells); format: cell-based; conditions: data rounded to nearest 1 nM
Method: The cell monolayer was lifted with 2 mM EDTA in PBS. Cells were pelleted by centrifugation at 1,000 rpm, and cell pellets were either stored frozen at −80° C. or membranes were prepared immediately for use. cAMP assays were performed in a radioimmunoassay format using the Flashplate Adenylyl Cyclase Activation Assay System with [^125I]-cAMP (NEN SMP004, PerkinElmer Life Sciences Inc., Boston, Mass.), according to the manufacturers instructions. […] Cells were rinsed with PBS and detached in dPBS (Dulbecco's Phosphate Buffered Saline, without CaCl2 and MgCl2) containing 2 mM EDTA or Trypsin-EDTA solution (0.05% trypsin/0.53 mM EDTA). After counting cells in Coulter cell counter, cells were pelleted by centrifugation at 1,000 rpm and re-suspended in stimulation buffer containing TBMX (PerkinElmer Kit) pre-warmed to room temperature to a concentration of 1.6×10^6 to 2.8×10^6 cells/mL. About 40,000 to 80,000 cells per well were used in this assay. […] Reactions were incubated for 10 min at 37° C. and stopped by adding 100 μL of cold detection buffer containing [^125I]-cAMP (NEN SMP004, PerkinElmer Life Sciences, Boston, Mass.). […] Data were analyzed by nonlinear regression analysis with the GraphPad Prism Software package (GraphPad Software, Inc., San Diego, Calif.) with the sigmoidal equation. The Cheng-Prusoff equation (Cheng Y, and Prusoff W H., Biochemical Pharmacology, 1973, 22, 23, 3099-108) was used to calculate the EC50 values.

[3] = test system: MCh-induced bronchoconstriction; test: Einthoven assay: bronchoprotection against methacholine (MCh)-induced bronchoconstriction; format: in vivo, rat; conditions: for inhibition in vivo at 0.1 mg: inhaled or nasal, read-out: Broncho. at 24 h
Method: This assay measures the ability of a test compound to provide bronchoprotection against methacholine (MCh)-induced bronchoconstriction in a rat. Male Sprague-Dawley rats (Harlan, Indianapolis, Ind.), weighing between 200 g and 350 g, were used for all studies. Test compound or vehicle (sterile deionized water) were dosed by inhalation (1H) over a 10 min period in a pie shaped inhalation chamber (R+S Molds, San Carlos, Calif.) using 5 mL of dosing solution. […] Rats were dosed with 100 μg of test compound unless otherwise indicated. At predetermined time points, rats were anesthetized with an intraperitoneal (IP) injection of 120 mg/kg inactin (thiobutabarbital). A supplemental dose (40 mg/kg, IP) was administered if the animal responded to physical stimuli (e.g. toe pinch). The surgical site was shaved and a 1-2 cm midline incision of the ventral aspect of the neck was made. The jugular vein was isolated and cannulated with a saline-filled polyethylene catheter (PE-50) to allow IV infusion of MCh. Trachea was dissected free and cannulated with a 14G needle (#NE-014, Small Parts, Miami Lakes, Fla.). After placement of the tracheal cannula, each rat was ventilated using a respirator (Model 683, Harvard Apparatus, Inc., MA) set at a stroke volume of 1 mL/100 g body weight (but not exceeding 2.5 mL volume) and a rate of 90 strokes per minute. A T-connector was placed along the respirator expiratory tubing to allow for measurement of changes in ventilation pressure (VP) using a Biopac transducer that was connected to a Biopac […]) pre-amplifier. Body temperature was maintained at 37° C. using a heating pad. Changes in VP were recorded using the Acknowledge Data Collection Software (Santa Barbara, Calif.). Baseline values were collected for at least 2.5 min. Rats were then challenged with non-cumulative intravenous (IV) infusions of 40 and 80 μg/kg MCh. MCh was infused intravenously for 2.5 minutes from a syringe pump (sp210iw, World Precision Instruments, Inc., Sarasota, Fla.) at a rate of 2 mL/kg/min, with a 2 minute interval between the two doses of MCh. Changes in ventilation pressure (cm H2O) in treated animals are expressed as % inhibition of MCh response relative to control animals. Other bronchoconstrictors, such as histamine and acetylcholine, can be used in place of MCh in this assay. Additionally, guinea pigs can be used instead of rats. […] Inhibition greater than or equal to 30 percent at 24 h is indicative of a long duration of action.

[4] = rat, 100 μg by inhalation, 24 h after administration
[5] = hM3 Muscarinic Receptor Binding, data rounded to nearest 0.1 nM

hM3 muscarinic receptor, sequence (P20309 whole entry): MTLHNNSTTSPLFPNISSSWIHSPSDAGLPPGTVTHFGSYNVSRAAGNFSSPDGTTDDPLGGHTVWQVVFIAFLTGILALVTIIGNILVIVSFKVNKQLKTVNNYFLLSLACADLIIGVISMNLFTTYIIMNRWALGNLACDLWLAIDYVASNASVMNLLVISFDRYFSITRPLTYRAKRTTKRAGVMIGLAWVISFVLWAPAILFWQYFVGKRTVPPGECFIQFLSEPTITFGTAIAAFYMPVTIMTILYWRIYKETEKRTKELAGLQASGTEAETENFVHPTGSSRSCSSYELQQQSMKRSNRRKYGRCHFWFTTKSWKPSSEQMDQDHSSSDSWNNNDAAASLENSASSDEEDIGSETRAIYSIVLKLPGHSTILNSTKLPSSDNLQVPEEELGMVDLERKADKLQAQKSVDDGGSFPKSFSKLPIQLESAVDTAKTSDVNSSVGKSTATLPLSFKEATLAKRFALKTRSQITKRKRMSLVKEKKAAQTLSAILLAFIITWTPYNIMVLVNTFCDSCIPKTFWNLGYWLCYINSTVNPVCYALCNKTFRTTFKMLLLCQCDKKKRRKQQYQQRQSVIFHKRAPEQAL
hβ2 adrenergic receptor, sequence (P07550 whole entry): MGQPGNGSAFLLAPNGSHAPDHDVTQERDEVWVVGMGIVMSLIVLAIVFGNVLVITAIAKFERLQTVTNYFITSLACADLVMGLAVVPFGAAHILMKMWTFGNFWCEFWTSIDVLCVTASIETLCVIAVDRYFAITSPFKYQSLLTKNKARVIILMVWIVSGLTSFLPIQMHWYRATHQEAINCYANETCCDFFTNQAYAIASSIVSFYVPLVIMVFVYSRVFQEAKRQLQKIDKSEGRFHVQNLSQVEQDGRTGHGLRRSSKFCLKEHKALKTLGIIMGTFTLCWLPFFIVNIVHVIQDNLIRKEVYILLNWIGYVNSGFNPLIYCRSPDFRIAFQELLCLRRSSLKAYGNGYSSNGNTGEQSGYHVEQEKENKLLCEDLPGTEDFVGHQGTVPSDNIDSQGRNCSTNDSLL

Row | Compound | Ki [1] | EC50 [2] | inhibition in vivo at 0.1 mg ([3]; Rattus norvegicus, 24 h) | Broncho. at 24 h [3, 4] | Ki [1, 5] | inhibition in vivo at 0.1 mg [3, 4]
1 | Cc1cc(NC(=O)CCCCN(C)C(=O)CCN2CCC(OC(=O)Nc3ccccc3-c3ccccc3)CC2)c(C)cc1CNC[C@H](O)c1ccc(O)c2[nH]c(=O)ccc12 [Compound I-18, Biphenyl-2-ylcarbamic Acid 1-(2-{[4-(4-{[(R)-2-Hydroxy-2-(8-hydroxy-2-oxo-1,2-dihydroquinolin-5-yl)ethylamino]methyl}-2,5-dimethylphenylcarbamoyl)butyl]methylcarbamoyl}ethyl)piperidin-4-yl Ester Ditrifluoroacetic Acid Salt] | 0.1 nM | 1 nM | > 30% | – | – | –
2 | C[C@@H](Cc1cccc(NC(=O)c2cccc(N(C)C(=O)CCN3CCC(OC(=O)Nc4ccccc4-c4ccccc4)CC3)c2)c1)NC[C@H](O)c1ccc(O)c2[nH]c(=O)ccc12 [Compound I-39] | 0.2 nM | 1 nM | – | No | – | –
3 | COc1cc(NC(=O)Cc2cccc(N(C)C(=O)CCN3CCC(OC(=O)Nc4ccccc4-c4ccccc4)CC3)c2)c(Cl)cc1CNC[C@H](O)c1ccc(O)c2[nH]c(=O)ccc12 [Compound I-61] | – | 1 nM | – | – | 0.1 nM | > 30%
4 | COc1ccc(CC(C)NC[C@H](O)c2ccc(O)c3[nH]c(=O)ccc23)cc1CC(=O)NCc1ccc(N(C)C(=O)CCN2CCC(OC(=O)Nc3ccccc3-c3ccccc3)CC2)cc1 (stereo partly drawn) [Compound I-94] | – | 1 nM | – | – | 0.1 nM | > 30%
5 | CC(Cc1ccc(CNC(=O)Cc2ccc(N(C)C(=O)CCN3CCC(OC(=O)Nc4ccccc4-c4ccccc4)CC3)cc2)cc1)NC[C@H](O)c1ccc(O)c2[nH]c(=O)ccc12 (stereo partly drawn) [Compound I-66] | 0.2 nM | 1 nM | – | No | – | –
6 | CC(Cc1ccc(CNC(=O)Cc2ccc(N(C)C(=O)CCN3CCC(OC(=O)Nc4ccccc4-c4ccccc4)CC3)cc2)cc1)NC[C@H](O)c1ccc(O)c2[nH]c(=O)ccc12 (stereo partly drawn) [Compound I-67] | 0.1 nM | 1 nM | – | – | – | > 30%
7 | Cc1ccc(C(=O)Nc2cccc(CC(C)NC[C@H](O)c3ccc(O)c4[nH]c(=O)ccc34)c2)cc1N(C)C(=O)CCN1CCC(OC(=O)Nc2ccccc2-c2ccccc2)CC1 (stereo partly drawn) [Compound I-37] | 0.2 nM | 1 nM | – | No | – | –
8 | C[C@H](Cc1ccc(CNC(=O)c2cccc(N(C)C(=O)CCN3CCC(OC(=O)Nc4ccccc4-c4ccccc4)CC3)c2)cc1)NC[C@H](O)c1ccc(O)c2[nH]c(=O)ccc12 [Compound I-48] | 0.3 nM | 1 nM | – | – | – | > 30%
9 | COc1cc(CNC[C@H](O)c2ccc(O)c3[nH]c(=O)ccc23)ccc1NC(=O)c1cccc(N(C)C(=O)CCN2CCC(OC(=O)Nc3ccccc3-c3ccccc3)CC2)c1 [Compound I-29] | – | 1 nM | – | No | 0.1 nM | –
10 | Cc1ccc(C(=O)Nc2cccc(CCNC[C@H](O)c3ccc(O)c4[nH]c(=O)ccc34)c2)cc1N(C)C(=O)CCN1CCC(OC(=O)Nc2ccccc2-c2ccccc2)CC1 [Compound I-33] | 0.2 nM | 1 nM | – | No | – | –
11 | C[C@H](Cc1cccc(CC(=O)NCCCN(C)C(=O)CCN2CCC(OC(=O)Nc3ccccc3-c3ccccc3)CC2)c1)NC[C@H](O)c1ccc(O)c2[nH]c(=O)ccc12 [Compound I-12] | 0.1 nM | 1 nM | – | No | – | –
12 | CC(Cc1cccc(CNC(=O)c2cccc(N(C)C(=O)CCN3CCC(OC(=O)Nc4ccccc4-c4ccccc4)CC3)c2)c1)NC[C@H](O)c1ccc(O)c2[nH]c(=O)ccc12 (stereo partly drawn) [Compound I-44] | 0.1 nM | 1 nM | – | No | – | –
13 | Cc1cc(NC(=O)CCCN(C)C(=O)CCN2CCC(OC(=O)Nc3ccccc3-c3ccccc3)CC2)c(C)cc1CNC[C@H](O)c1ccc(O)c2[nH]c(=O)ccc12 [Compound I-5] | 0.1 nM | 1 nM | – | – | – | > 30%
14 | COc1ccc(CC(=O)NCc2ccc(N(C)C(=O)CCN3CCC(OC(=O)Nc4ccccc4-c4ccccc4)CC3)cc2)cc1C[C@H](C)NC[C@H](O)c1ccc(O)c2[nH]c(=O)ccc12 [Compound I-83] | – | 2 nM | – | – | 0.2 nM | > 30%
15 | CN(CCCCC(=O)Nc1cccc(CCNC[C@H](O)c2ccc(O)c3[nH]c(=O)ccc23)c1)C(=O)CCN1CCC(OC(=O)Nc2ccccc2-c2ccccc2)CC1 [Compound I-20] | 0.1 nM | 1 nM | – | – | – | > 30%
16 | CC(Cc1ccc(F)c(CC(=O)NCc2ccc(N(C)C(=O)CCN3CCC(OC(=O)Nc4ccccc4-c4ccccc4)CC3)cc2)c1)NC[C@H](O)c1ccc(O)c2[nH]c(=O)ccc12 (stereo partly drawn) [Compound I-95] | 0.2 nM | 1 nM | – | – | – | > 30%
17 | CC(Cc1cccc(NC(=O)CCCN(C)C(=O)CCN2CCC(OC(=O)Nc3ccccc3-c3ccccc3)CC2)c1)NC[C@H](O)c1ccc(O)c2[nH]c(=O)ccc12 (stereo partly drawn) [Compound I-10] | 0.1 nM | 1 nM | – | – | – | > 30%
18 | CC(Cc1cccc(CC(=O)NCCCCN(C)C(=O)CCN2CCC(OC(=O)Nc3ccccc3-c3ccccc3)CC2)c1)NC[C@H](O)c1ccc(O)c2[nH]c(=O)ccc12 (stereo partly drawn) [Compound I-22] | 0.1 nM | 1 nM | – | – | – | > 30%
19 | CC(Cc1cccc(CC(=O)NCc2ccc(N(C)C(=O)CCN3CCC(OC(=O)Nc4ccccc4-c4ccccc4)CC3)cc2)c1)NC[C@H](O)c1ccc(O)c2[nH]c(=O)ccc12 (stereo partly drawn) [Compound I-77] | 0.1 nM | 1 nM | – | – | – | > 30%
20 | Cc1cc(CNC[C@H](O)c2ccc(O)c3[nH]c(=O)ccc23)ccc1NC(=O)c1ccc(C)c(N(C)C(=O)CCN2CCC(OC(=O)Nc3ccccc3-c3ccccc3)CC2)c1 [Compound I-28] | 0.2 nM | 1 nM | – | No | – | –

— patent publication US8551978B2 (Theravance, Inc., priority 2009, dated 2013)
